Activity and logP data for 10 compounds are collected here from ChEMBL document CHEMBL3045390, “Synthesis of 3-(5-bromo-2,3-dimethoxy-phenyl)-[1, 2, 4] oxadiazole analogues and their evaluation as anti-Parkinsons agents” (Med Chem Res, 2008).

Series [1] has as its system Rattus norvegicus. Kind of series: Antiparkinson's activity in Rattus norvegicus albino (rat) assessed as reduction of chlorpromazine-induced catatonia at 100 mg/kg, ip administered 30 min before chlorpromazine challenge measured up to 180 min. In kind it is functional, organism-based. Further details: dose 100 mg/kg.
Series [2] is described as follows: Lipophilicity, log P of the compound. The format is physicochemical. The note with it: octanol/water.
Series [3] has as its system Rattus norvegicus. Kind of series: Neurotoxicity inRattus norvegicus albino (rat) assessed as motor coordination at 200 mg/kg, ip after 30 min by […]. The note with it: in vivo, 0.5 h. In kind it is toxicity, organism-based. Further details: dose 200 mg/kg, route intraperitoneal.
The subject of series [4] is Rattus norvegicus. Put plainly: Antiparkinson's activity in Rattus norvegicus albino (rat) assessed as reduction of chlorpromazine-induced catatonia at 10 mg/kg, ip administered 30 min before chlorpromazine challenge measured up to 180 min. In kind it is functional, organism-based. Details: dose 10 mg/kg.
Series [5] concerns Rattus norvegicus. Put plainly: Neurotoxicity inRattus norvegicus albino (rat) assessed as motor coordination at 10 mg/kg, ip after 30 min by […]. In kind it is toxicity, organism-based. Details: dose 10 mg/kg, route intraperitoneal. The note with it: in vivo, 0.5 h.

Calls of active or inactive are those of the source. The calls are words filed in the database; no cut-off is given here.

As for `COc1cc(Br)cc(-c2noc(C3CCCN3Cc3ccccc3)n2)c1OC` (stereo not drawn), in the series with Rattus norvegicus [1], the result was Active. The compound also returned a logP in series [2] of 5.52. For the same compound, the Activity entry in the series on Rattus norvegicus [3] is “Toxic”.

As for `N[C@@H](Cc1ccc(O)c(O)c1)C(=O)O` [LEVODOPA], in the series with Rattus norvegicus [4], the result was inactive. The Activity entry with Rattus norvegicus [5] is “Non-toxic”.

For the compound `COc1cc(Br)cc(-c2noc(C3CCN(Cc4ccccc4)CC3)n2)c1OC`, the result in the series on Rattus norvegicus [1] was Active. In addition, the logP in series [2] was determined as 5.59. Moreover, the Activity entry with Rattus norvegicus [3] was “Toxic”.

Take `NCCc1ccc(O)c(O)c1` [DOPAMINE]: in the series on Rattus norvegicus [4], the outcome was inactive. For the same compound, in the series with Rattus norvegicus [5], the Activity entry is “Non-toxic”.

In the case of `COc1cc(Br)cc(-c2noc(C3CCCN(Cc4ccccc4)C3)n2)c1OC` (stereo not drawn), the outcome in the series with Rattus norvegicus [1] was Active. In series [2], this compound came in with a logP of 5.81. Also, the Activity entry with Rattus norvegicus [3] is listed as “Toxic”.

Take `COc1cc(Br)cc(-c2noc(C3CCN(C)CC3)n2)c1OC`: the outcome with Rattus norvegicus [1] was Active. Besides, in series [2], the logP was 3.86. In addition, the Activity result in the series on Rattus norvegicus [3] is “Non-toxic”.

In the case of `COc1cc(Br)cc(-c2noc(C3CCCN3C)n2)c1OC` (stereo not drawn), the outcome in the series with Rattus norvegicus [1] was Active. For the same compound, the logP in series [2] worked out at 3.79. Further, in the series with Rattus norvegicus [3], the Activity result is “Non-toxic”.

Consider `COc1cc(Br)cc(-c2noc(C3CCCCN3C)n2)c1OC` (stereo not drawn), for which the result in the series on Rattus norvegicus [1] was Active. Moreover, the logP in series [2] was determined as 4.21. The Activity result in the series with Rattus norvegicus [3] is on record as “Non-toxic”.

Take `COc1cc(Br)cc(-c2noc(C3CCCCN3Cc3ccccc3)n2)c1OC` (stereo not drawn): in the series on Rattus norvegicus [1], the outcome was Active. Further, the logP in series [2] was found to be 5.81. In addition, the Activity entry with Rattus norvegicus [3] is on record as “Toxic”.

For the compound `COc1cc(Br)cc(-c2noc(C3CCCN(C)C3)n2)c1OC` (stereo not drawn), the result with Rattus norvegicus [1] was Active. Further, in series [2], the logP stood at 4.08. Moreover, the Activity result in the series with Rattus norvegicus [3] is “Non-toxic”.

The logP is the decadic logarithm of the partition coefficient of the neutral form, usually between octanol and water. High values mean higher lipophilicity, low ones lower lipophilicity.
